The source of these data is ChEMBL document CHEMBL1131905, “Tokaramide A, a new cathepsin B inhibitor from the marine sponge Theonella aff. mirabilis” (Bioorg Med Chem Lett, 1999).

In assay [1] the target is T1, Cathepsin B (Homo sapiens, UniProt P07858). Description: Inhibitory activity against Cathepsin B was determined.
Assay [2] deals with T1, Cathepsin B. Description: Inhibitory activity against Cathepsin B at a concentration of 10 ng/mL.
Assay [3] concerns the target T1, Cathepsin B. Description: Inhibitory activity against Cathepsin B at a concentration of 1 ng/mL.
Assay [4] deals with T1, Cathepsin B. Nature of the assay: Inhibitory activity against Cathepsin B at a concentration of 200 ng/mL.
For assay [5], the target named is T1, Cathepsin B. Nature of the assay: Inhibitory activity against Cathepsin B at a concentration of 400 ng/mL.
Assay [6] concerns the target T1, Cathepsin B. Nature of the assay: Inhibitory activity against Cathepsin B at a concentration of 50 ng/mL.
The target in assay [7] is T1, Cathepsin B. Description: Inhibitory activity against Cathepsin B at a concentration of 70 ng/mL.
The target in assay [8] is T1, Cathepsin B. Nature of the assay: Inhibitory activity against Cathepsin B at a concentration of 7 ng/mL.
In assay [9] the target is T1, Cathepsin B. Description: Inhibitory activity against Cathepsin B at a concentration of 4 ng/mL.
In assay [10] the target is T1, Cathepsin B. Nature of the assay: Inhibitory activity against Cathepsin B at a concentration of 1000 ng/mL.
Assay [11] deals with T1, Cathepsin B. Description: Inhibitory activity against Cathepsin B at a concentration of 900 ng/mL.
The target of assay [12] is T1, Cathepsin B. The note with it: 40 ng/mL.
Description: Inhibitory activity against Cathepsin B at a concentration of 40 ng/mL

By IC50 is commonly meant the concentration that gives 50% inhibition. Usually inhibition stands for the relative decrease from the control value, in per cent. Regarding `CC(C)C[C@H](NC(=O)[C@H]1O[C@@H]1C(=O)O)C(=O)NCCCCN=C(N)N` [E-64], at Cathepsin B [1], half-maximal inhibition (IC50) was put at 0.0137 µM. The inhibition against Cathepsin B [2] came to 75%; against Cathepsin B [3] it was 24%; against Cathepsin B [4], 98%; at Cathepsin B [5], 100%; at Cathepsin B [6] it was 90%; against Cathepsin B [7] it was 95%. In addition, the values for the inhibition against Cathepsin B [8] and on Cathepsin B [9] were 52% and 29%, respectively.

In the case of `CC(=O)N[C@@H](CC(C)C)C(=O)N[C@@H](CC(C)C)C(=O)N[C@H](C=O)CCCNC(=N)N` [LEUPEPTIN], the IC50 against Cathepsin B [1] was 0.0216 µM. For the same molecule, the inhibition was determined as 100% at Cathepsin B [10]; 55% at Cathepsin B [2]; 15% against Cathepsin B [3]; 95% on Cathepsin B [4]; 100% against Cathepsin B [5]; 75% at Cathepsin B [6]. For the same molecule, the inhibition against Cathepsin B [7] amounted to 82%; on Cathepsin B [8], 35%; on Cathepsin B [9], 25%; on Cathepsin B [11], 100%.

Take `CC(C)[C@H](NC(=O)c1ccc(O)cc1)C(=O)N[C@H](C(=O)N[C@H](C=O)CCCN=C(N)N)C(C)C` [TOKARAMIDE A]: the half-inhibitory concentration (IC50) on Cathepsin B [1] is 0.0609 µM. Moreover, the inhibition at Cathepsin B [2] worked out at 30%; against Cathepsin B [3], 10%; against Cathepsin B [5] it was 90%; at Cathepsin B [7], 70%; at Cathepsin B [8] it was 16%; against Cathepsin B [9], 12%. Besides, the values for the inhibition against Cathepsin B [11] and against Cathepsin B [12] were 100% and 45%, respectively.
